# According to publication PMC9781916, “Antipsychotic- and Anxiolytic-like Properties of a Multimodal Compound JJGW08 in Rodents” (International Journal of Molecular Sciences, 2022):
# Legend:
# mice [1] = test: Marble burying test in mice; format: in vivo
# Description: Figure 3 The effect of JJGW08 and aripiprazole on the number of buried marbles by mice. Mice were placed individually in cages with a 5 cm bedding layer, where 20 glass balls were placed. The number of buried marbles after 30 min of the test was counted. JJGW08 was administered intraperitoneally (ip) 30 min before the test. The control group received 0.9% NaCl solution (ip) or 1% Tween (ip) for aripiprazole. Values are expressed as means ± SD in the case of one-way ANOVA (aripiprazole) or median with interquartile range in the case of Kruskal–Wallis test (JJGW08), n = 8–10 mice per group. Statistical analysis: one-way ANOVA (Newman–Keuls post hoc), and Kruskal–Wallis test (Dunn post hoc), * p < 0.05, ** p < 0.01, *** p < 0.001.
# The test was conducted according to the method described by Broekkamp et al. with minor modifications. Mice were placed individually in plastic cages, identical to their home cages, that contained a layer of bedding and 20 glass balls (1.6 cm in diameter) arranged in a pattern 4 × 5. After 30 min of the experiment, the mice were removed from the cages, and the number of balls buried to at least 2/3 of their size was counted.
# mice [2] = test: Amphetamine-induced hyperlocomotion test in mice; format: in vivo; details: doses 0.3–2.5 mg/kg ip, amphetamine 2.5 mg/kg sc
# Description: Locomotor activity was recorded in actometers separately for each mouse. After 30 min of adaptation, the number of crossings of photo beams was measured during 60 min. […] MK-801 (0.2 mg/kg, ip) was administered 15 min before the experiment, while amphetamine (2.5 mg/kg) was administered subcutaneously (sc) 30 min before the experiment. […] Values are expressed as means ± SD, n = 8–10 mice per group. Statistical analysis: one-way ANOVA (Newman–Keuls post hoc), * p < 0.05, ** p < 0.01, *** p < 0.001.
# The test was performed according to the method described by Carlsson et al.. The mobility of the animals was measured in actometers, i.e., in plastic Opto M3 cages (22 × 12 × 13 cm) connected to a computer with MultiDevice Software v.1.30 (Columbus Instruments, Columbus, OH, USA). The experimental cages were equipped with infrared sources on one side and sensors receiving the emitted rays on the other side of the cage. The crossing of each beam of infrared rays was classified as motor activity. The animals were placed individually in experimental cages immediately after administration of the tested compound, 30 min before the start of the test, to adapt to the new conditions and exclude the occurrence of hyperactivity caused by the change of the environment. Spontaneous locomotor activity was measured every 5 min for 60 min. Mice received two injections: of the tested compound or reference substance (30 min before the test, ip) and of amphetamine (2.5 mg/kg, 30 min before the test, sc) or MK-801 (0.2 mg/kg, 15 min before the test, ip). Control groups received an injection of saline and amphetamine or MK-801, or two injections of saline, respectively. Olanzapine was used as a reference compound.
# mice [3] = test: Rotarod test in mice; format: in vivo; details: for Animals That Fell from Rotating Rod: 30 min before test; for Time before Animals Fell: max 60 s, mean ± SD
# Description: Mice were trained on the rotarod apparatus (May Commat RR0711, Ankara, Turkey; rod diameter: 2 cm) for 3 consecutive days. During each training session, animals were placed for 3 min on the rotating rod (24 rpm, constant speed) with unlimited trials. The experiment was performed 24 h after the last training session. On the test day, mice were injected with studied compounds and, 30 min later, placed on the rotarod. The criterion of motor impairments was the inability of the animal to remain on the rotating rod for 60 s.
# [4] = biological target: T1, human serotonin 5-HT2A receptor (Homo sapiens, UniProt P28223); format: cell-based
# T1 construct: host or cells: CHO-K1
# T1 sequence (P28223 whole entry): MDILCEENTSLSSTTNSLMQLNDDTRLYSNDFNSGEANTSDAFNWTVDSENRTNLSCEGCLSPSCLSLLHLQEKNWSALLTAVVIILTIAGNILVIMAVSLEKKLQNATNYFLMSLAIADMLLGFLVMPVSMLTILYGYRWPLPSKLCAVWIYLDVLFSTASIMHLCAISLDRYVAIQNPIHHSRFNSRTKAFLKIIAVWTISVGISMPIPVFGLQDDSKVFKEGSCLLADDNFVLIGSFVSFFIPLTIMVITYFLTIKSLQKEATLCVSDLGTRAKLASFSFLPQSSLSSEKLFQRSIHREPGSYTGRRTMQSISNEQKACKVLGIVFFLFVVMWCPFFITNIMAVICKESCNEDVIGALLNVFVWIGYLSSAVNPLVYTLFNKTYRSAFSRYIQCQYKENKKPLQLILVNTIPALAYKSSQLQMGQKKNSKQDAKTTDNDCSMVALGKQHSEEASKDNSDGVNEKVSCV
# Description: Tested and reference compounds were dissolved in dimethyl sulfoxide (DMSO) at a concentration of 10 mM. Serial dilutions were prepared in a 96-well microplate in assay buffer, and 8 to 10 concentrations were tested. […] The assay was executed according to the previously described protocol [45]. After thawing, cells were transferred to assay buffer (DMEM/HAM’s F12 with 0.1% protease-free BSA) and centrifuged. The cell pellet was resuspended in assay buffer, and coelenterazine h was added at final concentrations of 5 µM. The cell suspension was incubated at 16 °C (or 21 °C), protected from light with constant agitation for 16 h (or 4 h), and then diluted with assay buffer to the concentration of 100,000 cells/mL (or 250,000 cells/mL). After 1 h of incubation, 50 µL of the cell’s suspension was dispensed using automatic injectors built into the radiometric and luminescence plate counter MicroBeta2 LumiJET (PerkinElmer, Waltham, NA, USA) into white opaque 96-well microplates preloaded with test compounds. Immediate light emission generated following calcium mobilization was recorded for 30 s. In antagonist mode, after 25–30 min of incubation, the reference agonist was added to the above assay mix, and light emission was re-recorded. […] IC50 and EC50 values were calculated.
smiles,measurement,setting,value
"COc1ccccc1N1CCN(CCCCCOc2ccccc2C(N)=O)CC1.Cl [JJGW08, 2-{5-[4-(2-metoksyfenylo)piperazin-1-ylo]pentoxy}benzamide hydrochloride]",reduction of the number of buried marbles,mice [1]; 1.25 mg/kg ip,65%
same,reduction of the number of buried marbles,mice [1]; 2.5 mg/kg ip,84%
same,reduction of amphetamine-induced hyperlocomotion,mice [2],52–82%
same,TD50 relative to the lowest antipsychotic-like dose,mice [3],121 fold
same,Animals That Fell from Rotating Rod,mice [3]; 10 mg/kg ip,2/8
same,Time before Animals Fell,mice [3]; 10 mg/kg ip,58 ± 4 s
same,Animals That Fell from Rotating Rod,mice [3]; 20 mg/kg ip,4/8
same,Time before Animals Fell,mice [3]; 20 mg/kg ip,41 ± 24 s
same,Animals That Fell from Rotating Rod,mice [3]; 30 mg/kg ip,6/8
same,Time before Animals Fell,mice [3]; 30 mg/kg ip,20 ± 25 s
same,TD50,"mice [3]; ip, dose at which 50% of the animals could not stay on the rotating rod",18 (11–29) mg/kg
same,Agonist Mode Emax%,[4],21%
same,Agonist Mode pEC50 ± Range,[4],5.9 ± 0.1
same,Antagonist Mode Emax%,[4],5%
same,Antagonist Mode pIC50 ± Range,[4],5.7 ± 0.4
same,antagonistic properties (in words),[4],very weak antagonistic properties
same,Kb,[4]; read-out: Antagonist Mode Kb,290 nM
